Laboratory results reported in US10344060B2 (priority 2013, dated 2019).
“And” between values parts separate entries of the source, which are not always exact repeats. Equal entries are not always repeated. Where two headings read alike, the source gives them in different places.

Assays:
hNav1.4 = hNav1.4 (Homo sapiens, UniProt P35499); test: cell-based; type: cell-based; settings: for IC50: PatchXpress, tonic block, read-out: PX hNav1.4 Tonic IC50; for Nav1.4/Nav1.7: ratio of PX tonic IC50 values
hNav1.7 = hNav1.7 (Homo sapiens, UniProt Q15858); test: cell-based; type: cell-based; settings: read-out: PX hNav1.7 Tonic IC50
Sequence of hNav1.7 (Q15858 whole entry): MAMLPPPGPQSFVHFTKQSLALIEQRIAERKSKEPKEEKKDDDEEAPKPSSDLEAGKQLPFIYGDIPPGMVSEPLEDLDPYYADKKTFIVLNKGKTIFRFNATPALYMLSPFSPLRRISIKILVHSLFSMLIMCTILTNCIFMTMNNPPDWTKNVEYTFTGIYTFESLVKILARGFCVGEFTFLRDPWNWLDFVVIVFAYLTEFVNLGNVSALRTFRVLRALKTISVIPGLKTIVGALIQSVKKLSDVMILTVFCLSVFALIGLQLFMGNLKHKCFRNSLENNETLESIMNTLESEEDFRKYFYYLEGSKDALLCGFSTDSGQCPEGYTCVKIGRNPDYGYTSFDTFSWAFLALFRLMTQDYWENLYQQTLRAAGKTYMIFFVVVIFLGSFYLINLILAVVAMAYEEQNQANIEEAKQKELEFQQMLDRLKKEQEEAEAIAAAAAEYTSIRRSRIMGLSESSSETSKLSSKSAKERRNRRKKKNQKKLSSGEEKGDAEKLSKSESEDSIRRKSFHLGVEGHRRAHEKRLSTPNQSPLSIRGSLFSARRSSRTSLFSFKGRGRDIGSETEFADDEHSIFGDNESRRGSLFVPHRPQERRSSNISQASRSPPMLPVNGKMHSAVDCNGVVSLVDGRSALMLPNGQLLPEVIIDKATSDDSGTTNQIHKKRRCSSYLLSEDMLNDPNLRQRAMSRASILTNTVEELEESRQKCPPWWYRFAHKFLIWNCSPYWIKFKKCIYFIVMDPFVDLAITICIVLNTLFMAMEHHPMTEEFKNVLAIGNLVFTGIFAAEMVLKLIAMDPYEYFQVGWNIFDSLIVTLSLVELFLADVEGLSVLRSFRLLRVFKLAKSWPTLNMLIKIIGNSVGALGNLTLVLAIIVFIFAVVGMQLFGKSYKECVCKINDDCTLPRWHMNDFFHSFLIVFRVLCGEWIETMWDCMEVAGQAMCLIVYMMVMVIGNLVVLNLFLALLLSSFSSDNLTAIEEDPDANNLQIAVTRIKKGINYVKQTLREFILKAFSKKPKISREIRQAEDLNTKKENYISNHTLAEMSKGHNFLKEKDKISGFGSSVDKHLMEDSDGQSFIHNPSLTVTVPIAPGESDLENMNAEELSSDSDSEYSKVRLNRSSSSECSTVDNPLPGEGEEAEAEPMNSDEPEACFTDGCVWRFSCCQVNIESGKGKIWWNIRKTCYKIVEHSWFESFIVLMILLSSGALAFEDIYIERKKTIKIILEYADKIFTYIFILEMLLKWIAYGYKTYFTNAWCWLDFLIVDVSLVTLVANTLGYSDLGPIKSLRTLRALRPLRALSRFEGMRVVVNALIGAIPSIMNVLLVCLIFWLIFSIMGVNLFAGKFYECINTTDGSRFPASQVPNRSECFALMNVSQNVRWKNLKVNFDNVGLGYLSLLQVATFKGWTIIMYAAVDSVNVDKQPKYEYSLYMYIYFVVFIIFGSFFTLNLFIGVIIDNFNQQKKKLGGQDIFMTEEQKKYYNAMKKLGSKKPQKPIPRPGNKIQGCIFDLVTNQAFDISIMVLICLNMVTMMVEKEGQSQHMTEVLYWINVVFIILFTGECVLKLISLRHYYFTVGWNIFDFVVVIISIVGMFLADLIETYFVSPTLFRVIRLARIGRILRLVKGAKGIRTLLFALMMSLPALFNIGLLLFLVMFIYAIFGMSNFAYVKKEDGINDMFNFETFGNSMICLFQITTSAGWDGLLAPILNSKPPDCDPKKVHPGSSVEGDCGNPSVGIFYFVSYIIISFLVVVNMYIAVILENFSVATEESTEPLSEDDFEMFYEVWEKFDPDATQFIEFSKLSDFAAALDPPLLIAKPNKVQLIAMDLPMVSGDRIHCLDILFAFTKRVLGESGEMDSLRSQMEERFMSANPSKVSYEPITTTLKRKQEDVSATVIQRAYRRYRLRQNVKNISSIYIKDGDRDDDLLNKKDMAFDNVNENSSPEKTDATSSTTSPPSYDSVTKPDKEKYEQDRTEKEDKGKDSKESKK

hNav1.5 = hNav1.5 (Homo sapiens, UniProt Q14524); test: cell-based; settings: for Nav1.5/Nav1.7: ratio of PX tonic IC50 values
Sequence of hNav1.5 (Q14524 whole entry): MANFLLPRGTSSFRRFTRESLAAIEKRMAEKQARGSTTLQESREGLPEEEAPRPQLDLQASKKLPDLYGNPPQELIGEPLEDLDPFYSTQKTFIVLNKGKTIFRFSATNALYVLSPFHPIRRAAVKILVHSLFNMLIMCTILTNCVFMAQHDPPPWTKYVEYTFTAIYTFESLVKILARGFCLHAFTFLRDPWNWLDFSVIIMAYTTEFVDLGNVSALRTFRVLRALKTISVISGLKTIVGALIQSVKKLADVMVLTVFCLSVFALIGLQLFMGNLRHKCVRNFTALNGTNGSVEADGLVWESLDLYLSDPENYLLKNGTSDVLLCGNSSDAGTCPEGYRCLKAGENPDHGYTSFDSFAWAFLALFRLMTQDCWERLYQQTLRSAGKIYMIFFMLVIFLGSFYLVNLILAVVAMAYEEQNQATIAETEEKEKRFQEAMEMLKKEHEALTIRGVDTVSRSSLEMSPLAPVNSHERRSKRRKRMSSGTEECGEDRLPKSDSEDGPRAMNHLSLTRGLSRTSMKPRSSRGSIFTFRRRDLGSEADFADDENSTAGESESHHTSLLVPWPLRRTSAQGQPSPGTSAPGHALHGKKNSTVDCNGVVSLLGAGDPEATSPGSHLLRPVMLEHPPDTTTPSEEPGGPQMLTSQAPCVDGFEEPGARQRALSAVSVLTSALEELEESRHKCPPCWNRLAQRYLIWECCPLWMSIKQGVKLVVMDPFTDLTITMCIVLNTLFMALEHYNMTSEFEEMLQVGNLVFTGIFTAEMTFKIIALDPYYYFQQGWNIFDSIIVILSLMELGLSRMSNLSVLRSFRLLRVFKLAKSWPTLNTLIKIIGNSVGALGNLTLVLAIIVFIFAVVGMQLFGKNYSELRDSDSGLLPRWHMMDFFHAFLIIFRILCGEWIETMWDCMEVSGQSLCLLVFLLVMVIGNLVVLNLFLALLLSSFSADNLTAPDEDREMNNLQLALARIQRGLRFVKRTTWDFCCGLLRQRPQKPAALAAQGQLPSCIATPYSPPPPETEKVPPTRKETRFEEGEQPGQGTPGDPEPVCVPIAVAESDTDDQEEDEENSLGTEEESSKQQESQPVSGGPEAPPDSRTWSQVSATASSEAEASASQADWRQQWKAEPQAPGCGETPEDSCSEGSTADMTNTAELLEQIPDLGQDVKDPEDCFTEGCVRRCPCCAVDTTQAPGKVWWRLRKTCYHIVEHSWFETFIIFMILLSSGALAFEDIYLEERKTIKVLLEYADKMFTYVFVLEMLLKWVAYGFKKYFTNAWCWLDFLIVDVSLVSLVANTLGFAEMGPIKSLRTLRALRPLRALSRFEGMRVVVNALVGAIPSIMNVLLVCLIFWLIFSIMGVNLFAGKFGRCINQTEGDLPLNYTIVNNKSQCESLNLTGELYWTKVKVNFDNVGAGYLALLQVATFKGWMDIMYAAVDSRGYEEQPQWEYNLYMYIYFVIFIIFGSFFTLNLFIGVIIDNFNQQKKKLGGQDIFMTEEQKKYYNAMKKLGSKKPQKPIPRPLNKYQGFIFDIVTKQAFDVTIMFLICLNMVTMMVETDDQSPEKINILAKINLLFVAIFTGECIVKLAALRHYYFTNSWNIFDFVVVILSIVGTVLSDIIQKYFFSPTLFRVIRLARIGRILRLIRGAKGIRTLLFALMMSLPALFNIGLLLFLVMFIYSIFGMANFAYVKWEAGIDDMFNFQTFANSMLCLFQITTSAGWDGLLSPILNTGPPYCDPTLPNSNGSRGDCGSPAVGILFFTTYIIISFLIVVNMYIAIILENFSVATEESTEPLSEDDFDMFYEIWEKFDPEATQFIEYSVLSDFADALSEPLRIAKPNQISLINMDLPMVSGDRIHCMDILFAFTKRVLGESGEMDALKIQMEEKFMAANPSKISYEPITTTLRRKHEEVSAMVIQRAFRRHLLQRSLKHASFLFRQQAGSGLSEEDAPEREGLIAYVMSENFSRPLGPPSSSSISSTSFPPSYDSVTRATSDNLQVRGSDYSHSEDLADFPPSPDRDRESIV

hNav1.6 = hNav1.6 (Homo sapiens, UniProt Q9UQD0); test: cell-based; type: cell-based; settings: Table 15; for Nav1.6/Nav1.7: ratio of PX tonic IC50 values; for IC50: read-out: PX hNav1.6 Tonic IC50
[1] = system: TTX-sensitive Nav channels in mouse DRG neuron; settings: for block of TTX-sensitive Nav current: C57 Black 6 mouse DRG neuron
mNav1.7 = mNav1.7 (Mus musculus, UniProt Q62205); test: cell-based; settings: for IC50: PatchXpress, tonic block, mouse Nav1.7, read-out: PX mNav1.7 Tonic IC50; for mNav1.7/hNav1.7: ratio of PX tonic IC50, mouse Nav1.7 over human Nav1.7
mouse Nav1.4 = mouse Nav1.4 (Mus musculus, UniProt Q9ER60); test: cell-based; settings: for IC50: PatchXpress, tonic block, mouse Nav1.4, read-out: PX mNav1.4 Tonic IC50; for mNav1.4/mNav1.7: ratio of PX tonic IC50, mouse Nav1.4 over mouse Nav1.7
[2] = Table 12, PatchXpress, tonic block
[3] = PatchXpress, tonic block, human Nav1.7

`C#CC[C@H](N)C(=O)NCCCC[C@@H]1NC(=O)[C@H](CCCNC(=N)N)NC(=O)[C@H](CCCCN)NC(=O)[C@H](CO)NC(=O)[C@H](CC(=O)O)NC(=O)[C@@H]2CSSC[C@@H]3NC(=O)[C@H](CCCNC(=N)N)NC(=O)[C@H](CC(C)C)NC(=O)CNC(=O)[C@H](CCC(=O)O)NC(=O)[C@H](CSSC[C@H](NC(=O)[C@H](Cc4ccc(O)cc4)NC(=O)[C@@H](N)CC#N)C(=O)N[C@@H](CCC(N)=O)C(=O)N[C@@H](CCCCN)C(=O)N[C@@H](Cc4c[nH]c5ccccc45)C(=O)N[C@@H](CCCC)C(=O)N[C@@H](Cc4c[nH]c5ccccc45)C(=O)N[C@@H]([C@@H](C)O)C(=O)N2)NC(=O)[C@H](CSSC[C@@H](C(=O)N[C@@H](CCCNC(=N)N)C(=O)N[C@@H](CCCCN)C(=O)N[C@@H](CCC(=O)O)C(=O)N[C@H](C(N)=O)[C@@H](C)CC)NC(=O)[C@H](Cc2c[nH]c4ccccc24)NC(=O)[C@H](CC(C)C)NC(=O)[C@H](CCCCN)NC3=O)NC1=O` [compound 392] was tested, and the IC50 (hNav1.4; Table 12) was 110 nM, the IC50 (hNav1.7; Table 15) was 1.59 nM and the Nav1.5/Nav1.7 (hNav1.5; Table 12) was 659 and 615 and 841. For the same compound, the Nav1.6/Nav1.7 (hNav1.6) was 157, the IC50 (hNav1.6) was 250 nM and the IC50 [1] was 46.6 nM. For the same compound, the “fold less potent than JzTx-V in inhibition of TTX-sensitive current” value [1] was “about 3 fold”.
For `C#CC[C@H](N)C(=O)N[C@@H](Cc1ccc(O)cc1)C(=O)N[C@H]1CSSC[C@@H]2NC(=O)[C@@H]3CSSC[C@@H](C(=O)N[C@@H](CCCNC(=N)N)C(=O)N[C@@H](CCCCN)C(=O)N[C@@H](CCC(=O)O)C(=O)N[C@H](C(N)=O)[C@@H](C)CC)NC(=O)[C@H](Cc4c[nH]c5ccccc45)NC(=O)[C@H](CC(C)C)NC(=O)[C@H](CCCCN)NC(=O)[C@H](CSSC[C@H](NC(=O)[C@H]([C@@H](C)O)NC(=O)[C@H](Cc4c[nH]c5ccccc45)NC(=O)[C@H](CCCC)NC(=O)[C@H](Cc4c[nH]c5ccccc45)NC(=O)[C@H](CCCCN)NC(=O)[C@H](CCC(N)=O)NC1=O)C(=O)N[C@@H](CC(=O)O)C(=O)N[C@@H](CO)C(=O)N[C@@H](CCCCN)C(=O)N[C@@H](CCCNC(=N)N)C(=O)N[C@@H](CCC(=O)O)C(=O)N3)NC(=O)[C@H](CCCNC(=N)N)NC(=O)[C@H](CC(C)C)NC(=O)CNC(=O)[C@H](CCC(=O)O)NC2=O` [compound 717], the IC50 (hNav1.4; Table 12) was 325 nM, the Nav1.4/Nav1.7 (hNav1.4; Table 12) was 333 and the IC50 (hNav1.7; [2]) was 0.975 nM. For the same compound, the Nav1.6/Nav1.7 (hNav1.6) was 2558, the IC50 (hNav1.6) was 2490 nM and the IC50 [1] was 99.8 nM. The “block of TTX-sensitive Nav current” value ([1]; 1000 nM) was “approximately 90%”.
Work on `C#CC[C@H](N)C(=O)N[C@@H](Cc1ccc(O)cc1)C(=O)N[C@H]1CSSC[C@@H]2NC(=O)[C@@H]3CSSC[C@@H](C(=O)N[C@@H](CCCNC(=N)N)C(=O)N[C@@H](CCCCN)C(=O)N[C@H](C(=O)N[C@@H](Cc4c[nH]c5ccccc45)C(N)=O)[C@@H](C)CC)NC(=O)[C@H](Cc4c[nH]c5ccccc45)NC(=O)[C@H](CC(C)C)NC(=O)[C@H](CCCCN)NC(=O)[C@H](CSSC[C@H](NC(=O)[C@H]([C@@H](C)O)NC(=O)[C@H](Cc4c[nH]c5ccccc45)NC(=O)[C@H](CCCC)NC(=O)[C@H](Cc4c[nH]c5ccccc45)NC(=O)[C@H](CCCCN)NC(=O)[C@H](CCC(N)=O)NC1=O)C(=O)N[C@@H](CC(=O)O)C(=O)N[C@@H](CO)C(=O)N[C@@H](CCCCN)C(=O)N[C@@H](CCCNC(=N)N)C(=O)N[C@@H](C)C(=O)N3)NC(=O)[C@H](CCCNC(=N)N)NC(=O)[C@H](CC(C)C)NC(=O)CNC(=O)[C@H](CCC(=O)O)NC2=O` [Pra-[Nle6; Trp29]JzTx-V(1-29)] yielded an IC50 (mNav1.7) of 10.7 nM, a mNav1.7/hNav1.7 (mNav1.7) of 2.23 and an IC50 (mouse Nav1.4) of 9.67 nM. It also gave a mNav1.4/mNav1.7 (mouse Nav1.4) of 0.91.
With `CCCC[C@@H]1NC(=O)[C@H](Cc2c[nH]c3ccccc23)NC(=O)[C@H](CCCCN)NC(=O)[C@H](CCC(N)=O)NC(=O)[C@@H](NC(=O)[C@H](Cc2ccc(O)cc2)NC(=O)[C@@H](N)CC(C)C)CSSC[C@@H]2NC(=O)[C@@H]3CSSC[C@@H](C(=O)N[C@@H](CCCNC(=N)N)C(=O)N[C@@H](CCCCN)C(=O)N[C@H](C(=O)N[C@H](C(N)=O)[C@@H](C)CC)[C@@H](C)CC)NC(=O)[C@H](Cc4c[nH]c5ccccc45)NC(=O)[C@H](CC(C)C)NC(=O)[C@H](CCCCN)NC(=O)[C@H](CSSC[C@H](NC(=O)[C@H]([C@@H](C)O)NC(=O)[C@H](Cc4c[nH]c5ccccc45)NC1=O)C(=O)N[C@@H](CC(=O)O)C(=O)N[C@@H](CO)C(=O)N[C@@H](CCCCN)C(=O)N[C@@H](CCCNC(=N)N)C(=O)N[C@@H](C)C(=O)N3)NC(=O)[C@H](CCCNC(=N)N)NC(=O)[C@H](CC(C)C)NC(=O)CNC(=O)[C@H](CCC(=O)O)NC2=O` [Leu-[Nle6]JzTx-V(1-29)] the IC50 (mNav1.7) was 1.33 nM, the mNav1.7/hNav1.7 (mNav1.7) was 10.22 and the IC50 (hNav1.7; [3]) was 0.13 nM. It also gave an IC50 (mouse Nav1.4) of 1.8 nM and a mNav1.4/mNav1.7 (mouse Nav1.4) of 1.4.
Work on `CCCC[C@@H]1NC(=O)[C@H](Cc2c[nH]c3ccccc23)NC(=O)[C@H](CCCCN)NC(=O)[C@H](CCC(N)=O)NC(=O)[C@@H](NC(=O)[C@H](Cc2ccc(O)cc2)NC(=O)[C@@H](N)CC#N)CSSC[C@@H]2NC(=O)[C@@H]3CSSC[C@@H](C(=O)N[C@@H](CCCNC(=N)N)C(=O)N[C@@H](CCCCN)C(=O)N[C@@H](CCC(=O)O)C(=O)N[C@H](C(N)=O)[C@@H](C)CC)NC(=O)[C@H](Cc4c[nH]c5ccccc45)NC(=O)[C@H](CC(C)C)NC(=O)[C@H](CCCCN)NC(=O)[C@H](CSSC[C@H](NC(=O)[C@H]([C@@H](C)O)NC(=O)[C@H](Cc4c[nH]c5ccccc45)NC1=O)C(=O)N[C@@H](CC(=O)O)C(=O)N[C@@H](CO)C(=O)N[C@@H](CCCCN)C(=O)N[C@@H](CCCNC(=N)N)C(=O)N[C@@H](C)C(=O)N3)NC(=O)[C@H](CCCNC(=N)N)NC(=O)[C@H](CC(C)C)NC(=O)CNC(=O)[C@H](Cc1cn(CCCOCCOCCOCCOCCOCCOCCOCCOCCOCCOCCN)nn1)NC2=O` [compound 443] yielded a Nav1.4/Nav1.7 (hNav1.4; Table 13) of 31, a Nav1.5/Nav1.7 (hNav1.5; Table 13) of 236 and an IC50 [1] of 35.2 nM. The “block of TTX-sensitive Nav current” value ([1]; 300 nM) was “over 75%”.
`C#CC[C@H](N)C(=O)N[C@@H](Cc1ccc(O)cc1)C(=O)N[C@H]1CSSC[C@@H]2NC(=O)[C@@H]3CSSC[C@@H](C(=O)N[C@@H](CCCNC(=N)N)C(=O)N[C@@H](CCCCN)C(=O)N[C@@H](CCC(=O)O)C(=O)N[C@H](C(N)=O)[C@@H](C)CC)NC(=O)[C@H](Cc4c[nH]c5ccccc45)NC(=O)[C@H](CC(C)C)NC(=O)[C@H](CCCCN)NC(=O)[C@H](CSSC[C@H](NC(=O)[C@H]([C@@H](C)O)NC(=O)[C@H](Cc4c[nH]c5ccccc45)NC(=O)[C@H](CCCC)NC(=O)[C@H](Cc4c[nH]c5ccccc45)NC(=O)[C@H](CCCCN)NC(=O)[C@H](CCC(N)=O)NC1=O)C(=O)N[C@@H](CC(=O)O)C(=O)N[C@@H](CO)C(=O)N[C@@H](CCC(=O)O)C(=O)N[C@@H](CCCNC(=N)N)C(=O)N[C@@H](C)C(=O)N3)NC(=O)[C@H](CCCNC(=N)N)NC(=O)[C@H](CC(C)C)NC(=O)CNC(=O)[C@H](CCC(=O)O)NC2=O` [compound 715] showed an IC50 (hNav1.4; Table 12) of 811 nM, a Nav1.4/Nav1.7 (hNav1.4; Table 12) of 470 and an IC50 (hNav1.7; [2]) of 1.73 nM. For the same compound, the IC50 (hNav1.5; Table 12, PatchXpress, tonic block, read-out: PX hNav1.5 Tonic IC50) was > 10000 nM, the Nav1.5/Nav1.7 (hNav1.5; Table 12) was >5794 and the Nav1.6/Nav1.7 (hNav1.6) was 508. The IC50 (hNav1.6) was 877 nM, the IC50 [1] was 144 nM and the “block of TTX-sensitive Nav current” value ([1]; 1000 nM) was “approximately 90%”.
With `CCCC[C@@H]1NC(=O)[C@H](Cc2c[nH]c3ccccc23)NC(=O)[C@H](CCCCN)NC(=O)[C@H](CCC(N)=O)NC(=O)[C@@H](NC(=O)[C@H](Cc2ccc(O)cc2)NC(=O)[C@@H](N)CCC)CSSC[C@@H]2NC(=O)[C@@H]3CSSC[C@@H](C(=O)N[C@@H](CCCNC(=N)N)C(=O)N[C@@H](CCCCN)C(=O)N[C@H](C(=O)N[C@H](C(N)=O)[C@@H](C)CC)[C@@H](C)CC)NC(=O)[C@H](Cc4c[nH]c5ccccc45)NC(=O)[C@H](CC(C)C)NC(=O)[C@H](CCCCN)NC(=O)[C@H](CSSC[C@H](NC(=O)[C@H]([C@@H](C)O)NC(=O)[C@H](Cc4c[nH]c5ccccc45)NC1=O)C(=O)N[C@@H](CC(=O)O)C(=O)N[C@@H](CO)C(=O)N[C@@H](CCCCN)C(=O)N[C@@H](CCCNC(=N)N)C(=O)N[C@@H](C)C(=O)N3)NC(=O)[C@H](CCCNC(=N)N)NC(=O)[C@H](CC(C)C)NC(=O)CNC(=O)[C@H](CCC(=O)O)NC2=O` [Nva-[Nle6]JzTx-V(1-29)] the IC50 (hNav1.7; [3]) was 0.82 nM and the IC50 (mouse Nav1.4) was 4.54 nM.
